{"source": "paper PMC9405216", "about": "“Antimicrobial and Cytotoxic Cyathane-Xylosides from Cultures of the Basidiomycete Dentipellis fragilis” (Antibiotics, 2022)", "assay_type_in_all_cases": "cell-based", "key": {"[1]": {"system": "Pichia anomala (DSM 6766)", "assay": "Serial dilution MIC assay, Pichia anomala", "conditions": "Hansenula anomala, DSM6766, serial dilution 67-0.5 µg/mL, overnight incubation, n.i. = no inhibition, read-out: MIC", "method": "(§1) Serial dilution assays in 96-well microtiter plates were performed according to our standard protocol in order to determine the minimum inhibitory concentrations (MICs) of pure isolated compounds against different microorganisms. Essentially, aliquots of compounds 1–5 and 9 (20 µL), each with an initial concentration of 1 mg/mL, were diluted in MeOH together with the respective microorganisms to concentrations ranging between 67 µg/mL and 0.5 µg/mL in the 96-well plates, followed by overnight incubation. The MIC was then determined as the lowest concentration at which no growth of the test organism was observed. A broad spectrum of clinically approved test pathogens and sensitivity indicator strains were used in the assays (Table 4 and Table 5). Ciprofloxacin, oxytetracycline, kanamycin, and gentamycin were used as positive controls against bacterial pathogens, while nystatin was used as the positive control against fungi."}, "[2]": {"system": "SKOV-3 (ovarian carcinoma)", "assay": "MTT cytotoxicity test, SKOV-3", "conditions": "Homo sapiens, SK-OV-3, 120 h, five days incubation", "text": "(§2) A panel of mammalian cell lines was used to determine the cytotoxicity of the compounds following a previously published protocol. The assay was initially performed using the sensitive cell lines KB3.1 (human endocervical adenocarcinoma) and L929 (mouse fibroblasts). Active compounds were further tested using the cell lines MCF-7 (human breast adenocarcinoma), PC-3 (human prostate adenocarcinoma), SKOV-3 (ovarian carcinoma), A549 (human lung carcinoma), and A431 (human squamous cell carcinomas) (Table 6). The cell lines A549, KB 3.1, and L929 were cultured in DMEM (Gibco, provided by Thermo Fisher Scientific), PC-3 in F12-K (Gibco) and MC-7, and SKOV-3 and A431 in RPMI (Gibco). With the exception of A549, all cell lines were supplemented with 10% bovine serum (Gibco). All cell lines were cultured at 37 °C. The L929 and KB 3.1 cell lines were cultivated under an atmosphere of 10% (v/v) carbon dioxide. Cytotoxicity tests were then carried out using MTT (3-(4,5-dimethylthiazol-2-yl)-2,5-diphenyltetrazolium bromide) in 96-well microtiter plates. Serial dilutions of the compounds (60 µL aliquots, each with an initial concentration of 1 mg/mL) were added into 120 µL aliquots of cell suspension (50000 cells/mL) in the 96-well plates. These were incubated for five days, after which an MTT assay was performed. The absorbance was taken at 590 nm using an Elisa plate reader (Victor, Überlingen, Germany). The half-maximal inhibitory concentration (IC50), the concentration at which cell growth inhibition was 50% of the control, was calculated as described elsewhere."}, "[3]": {"system": "Mucor hiemalis (DSM 2656)", "assay": "Serial dilution MIC assay, Mucor hiemalis", "conditions": "DSM2656, serial dilution 67-0.5 µg/mL, overnight incubation, n.i. = no inhibition, read-out: MIC", "method": "as §1"}, "[4]": {"system": "MCF-7 (A115) human breast adenocarcinoma", "assay": "MTT cytotoxicity test, MCF-7", "conditions": "MCF7, 120 h, MCF-7 human breast adenocarcinoma, five days incubation", "text": "as §2"}, "[5]": {"system": "Mycolicibacterium smegmatis (ATCC 700084)", "assay": "Serial dilution MIC assay, Mycolicibacterium smegmatis", "conditions": "ATCC700084, serial dilution 67-0.5 µg/mL, overnight incubation, n.i. = no inhibition, read-out: MIC", "method": "as §1"}, "[6]": {"system": "Bacillus subtilis (DSM 10)", "assay": "Serial dilution MIC assay, Bacillus subtilis", "conditions": "DSM10, serial dilution 67-0.5 µg/mL, overnight incubation, n.i. = no inhibition, read-out: MIC", "method": "as §1"}, "[7]": {"system": "other cell lines (MCF-7, A549, PC-3, SKOV-3, A431)", "assay": "MTT cytotoxicity test, other cell lines of the panel", "conditions": "range over the cell lines other than L929 and KB3.1 (Table 6)", "text": "as §2, with “These were incubated for five days, after which an MTT assay was performed.” left out, “The half-maximal inhibitory concentration (IC50), the concentration at which cell growth inhibition was 50% of the control, was calculated as described elsewhere.” left out"}, "[8]": {"system": "A549 (ACC107) human lung carcinoma", "assay": "MTT cytotoxicity test, A549", "conditions": "Homo sapiens, 120 h, five days incubation", "text": "as §2"}, "[9]": {"system": "Schizosaccharomyces pombe (DSM 70572)", "assay": "Serial dilution MIC assay, Schizosaccharomyces pombe", "conditions": "DSM70572, serial dilution 67-0.5 µg/mL, overnight incubation, n.i. = no inhibition, read-out: MIC", "method": "as §1"}, "[10]": {"system": "tested microorganisms (bacteria and fungi)", "assay": "Serial dilution MIC assays, whole panel of tested strains", "conditions": "range over most tested bacterial and fungal strains; read-out: minimum inhibitory concentrations (MICs) against most tested strains", "method": "as §1"}, "[11]": {"system": "A431 (ACC91) human squamous cell carcinomas", "assay": "MTT cytotoxicity test, A431", "conditions": "A-431, 120 h, five days incubation", "text": "as §2"}, "[12]": {"system": "L929 (ACC2) mouse fibroblasts", "assay": "MTT cytotoxicity test, L929", "conditions": "120 h, five days incubation, n.c. = no cytotoxicity, read-out: IC50", "text": "as §2"}, "[13]": {"system": "Pseudomonas aeruginosa (DSM PA14)", "assay": "Serial dilution MIC assay, Pseudomonas aeruginosa", "conditions": "serial dilution 67-0.5 µg/mL, overnight incubation, n.i. = no inhibition", "method": "as §1"}, "[14]": {"system": "PC-3 (ACC465) human prostate adenocarcinoma", "assay": "MTT cytotoxicity test, PC-3", "conditions": "120 h, PC-3 human prostate adenocarcinoma, five days incubation", "text": "as §2"}, "[15]": {"system": "Actinobacter baumannii (DSM 30008)", "assay": "Serial dilution MIC assay, Actinobacter baumannii", "conditions": "serial dilution 67-0.5 µg/mL, overnight incubation, n.i. = no inhibition, read-out: MIC", "method": "as §1"}, "[16]": {"system": "Rhodotorula glutinis (DSM 10134)", "assay": "Serial dilution MIC assay, Rhodotorula glutinis", "conditions": "DSM10134, serial dilution 67-0.5 µg/mL, overnight incubation, n.i. = no inhibition, read-out: MIC", "method": "as §1"}, "[17]": {"system": "Candida albicans (DSM 1665)", "assay": "Serial dilution MIC assay, Candida albicans", "conditions": "DSM1665, serial dilution 67-0.5 µg/mL, overnight incubation, n.i. = no inhibition, read-out: MIC", "method": "as §1"}, "[18]": {"system": "Escherichia coli (DSM 1116)", "assay": "Serial dilution MIC assay, Escherichia coli", "conditions": "DSM1116, serial dilution 67-0.5 µg/mL, overnight incubation, n.i. = no inhibition, read-out: MIC", "method": "as §1"}, "[19]": {"system": "Staphylococcus aureus (DSM 346)", "assay": "Serial dilution MIC assay, Staphylococcus aureus", "conditions": "DSM346, serial dilution 67-0.5 µg/mL, overnight incubation, n.i. = no inhibition, read-out: MIC", "method": "as §1"}, "[20]": {"system": "KB3.1 (ACC158) human endocervical adenocarcinoma", "assay": "MTT cytotoxicity test, KB3.1", "conditions": "KB 3-1, 120 h, KB3.1 human endocervical adenocarcinoma, five days incubation, n.c. = no cytotoxicity, read-out: IC50", "text": "as §2"}, "[21]": {"system": "Chromobacterium violaceum (DSM 30191)", "assay": "Serial dilution MIC assay, Chromobacterium violaceum", "conditions": "DSM30191, serial dilution 67-0.5 µg/mL, overnight incubation, n.i. = no inhibition, read-out: MIC", "method": "as §1"}}}
{"smiles": "CC(C)C1=C2[C@H]3CC=C(C=O)[C@@H]4[C@H](O[C@@H]5OC[C@@H](O)C(=O)[C@@]54O)[C@]3(C)CC[C@@]2(C)CC1", "note": "[Compound 9, striatal D]", "values": [{"measurement": "MIC", "setting": "[1]", "value": 33.3, "unit": "µg/mL"}, {"measurement": "IC50", "setting": "[2]", "value": 100, "unit": "nM"}, {"measurement": "MIC", "setting": "[3]", "value": 2.1, "unit": "µg/mL"}, {"measurement": "IC50", "setting": "[4]", "value": 100, "unit": "nM"}, {"measurement": "MIC", "setting": "[5]", "value": 33.3, "unit": "µg/mL"}, {"measurement": "MIC", "setting": "[6]", "value": 1, "unit": "µg/mL"}, {"measurement": "IC50", "setting": "[7]", "value": "100 to 1000", "unit": "nM"}, {"measurement": "IC50", "setting": "[8]", "value": 100, "unit": "nM"}, {"measurement": "MIC", "setting": "[9]", "value": 4.2, "unit": "µg/mL"}, {"measurement": "MIC", "setting": "[10]", "value": "1 to 66.6", "unit": "µg/mL"}, {"measurement": "IC50", "setting": "[11]", "value": 1000, "unit": "nM"}, {"measurement": "IC50", "setting": "[12]", "value": 800, "unit": "nM"}, {"measurement": "MIC", "setting": "[13]", "value": "n.i."}, {"measurement": "IC50", "setting": "[14]", "value": 400, "unit": "nM"}, {"measurement": "MIC", "setting": "[15]", "value": 66.6, "unit": "µg/mL"}, {"measurement": "MIC", "setting": "[16]", "value": 1, "unit": "µg/mL"}, {"measurement": "MIC", "setting": "[17]", "value": 33.3, "unit": "µg/mL"}, {"measurement": "MIC", "setting": "[18]", "value": 66.6, "unit": "µg/mL"}, {"measurement": "MIC", "setting": "[19]", "value": 2.1, "unit": "µg/mL"}, {"measurement": "IC50", "setting": "[20]", "value": 400, "unit": "nM"}, {"measurement": "MIC", "setting": "[21]", "value": 16.6, "unit": "µg/mL"}]}
